From patent US8193246B2, “Lipids and lipid assemblies comprising transfection enhancer elements” (Marina Biotech, Inc., priority 2006, dated 2012) come the findings set out here.

Assay [1] deals with HeLa-Cells. Nature of the assay: In vitro transfection with liposomes encapsulating carboxyfluorescein, fluorescence microscopy (Example 5). To be noted: 0.5 mM CF/well, FIG. 7-11. Type of assay: cell-based. Here is the method:
HeLa-Cells were obtained from DSMZ (German Collection of Micro Organism and Cell Cultures) and maintained in DMEM. Media were purchased from Gibco-Invitrogen and supplemented with 10% FCS at 37° C. under 5% CO2. The cells were plated at a density of 2×10^4 cells/ml and cultivated in 100 μl medium. After 16 h the media were replaced with Opti-MEM I (Gibco) containing liposomes (L1-L24) with a total amount of 50 to 200 ng Cy3-labelled oligonucleotides or 0.5 mM CF/well. Cell culture dishes were centrifuged for 1 h at 450 g at 37° C., followed by an incubation of 3 h hours at 37° C. under 5% CO2. The transfection mixture was replaced by the above mentioned medium and cells were incubated for further 24-48 h hours. Transfection efficiency and cellular distribution was determined after 4 or 24 hours by light and fluorescence microscopy using objectives with 10× or 40× magnification (Axionvert S 100, Carl Zeiss Inc.).

Assay [2] has as its system HeLa-Cells. Nature of the assay: In vitro transfection with liposomes encapsulating carboxyfluorescein (Example 11). Particulars: 0.05 mM CF/well, 4 hours, FIG. 17, 18. Type of assay: cell-based. Here is the method: HeLa-Cells were obtained from DSMZ (German Collection of Micro Organism and Cell Cultures) and maintained in DMEM. Media were purchased from Gibco-Invitrogen and supplemented with 10% FCS at 37° C. under 5% CO2. The cells were plated at a density of 4×10^4 cells/ml and cultivated in 100 μl medium. After 16 h the media were replaced with Opti-MEM I (Gibco) containing liposomes (L-46-L-49) with a total amount of 0.05 mM CF/well. Cell culture dishes were incubated for 4 hours at 37° C. under 5% CO2. Transfection efficiency and cellular distribution was determined after 4 hours by fluorescence microscopy with an exposure time of 5 seconds and using the 10/100 fold objective (Axionvert S 100, Carl Zeiss Inc.). Before imaging cells were washed several times (5×) with PBS pH7.4 and analysed directly (incubation time 20 to 30 sec.) in 50 μl PBS pH7.4. As control free CF (0.1 mM) in PBS was added to the cells.

As to “carboxyfluorescein [free carboxyfluorescein]”, in the assay on HeLa-Cells [1], the “fluorescence signal of carboxyfluorescein in cytosol or nucleus” value is “do not show any fluorescence signals”. Also, in the assay with HeLa-Cells [2], the “fluorescence signal of carboxyfluorescein” value was “no fluorescence signal was observed”.
